Data published in PubChem BioAssay AID179 (DTP/NCI, 2004).
Activity calls are given as the source filed them.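 How the source made its calls: active means compounds giving half or more protection of infected cells from virus-caused growth loss, again on retest; inactive means the rest.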 Where a SMILES comes first, the peptide text is derived from it. The star is where a group is joined. Boc = CC(C)(C)OC(=O)*; OBn = c1ccc(CO*)cc1

Tested on: CEM cells HIV-1 protection, formazan growth assay
Test: NCI AIDS Antiviral Assay
Conditions: for IC50: measured here: growth of uninfected CEM cells
How it was run: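 Human CEM cells, uninfected and HIV-1-infected, received five drug concentrations, and growth was read by soluble formazan assay. Compounds giving at least 50% protection were retested; reproducible 100% protection defined confirmed active.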

## NN1CCOC1=O
  EC50: > 200 µM
  IC50: > 200 µM

## BrCCCCCOc1ccc(-c2c3ccccc3c(-c3ccc(OCCCCCBr)cc3)c3ccccc23)cc1
  EC50: > 100 µM
  IC50: > 100 µM

## CCN1CCCc2cc3c(C(F)(F)F)cc(=O)oc3cc21
  EC50: > 17.4 µM
  IC50: > 17.4 µM

## Cc1cc2c(c(C(=O)O)c1C)-c1cccc(Cl)c1C2=O
  outcome: inactive

## CC(C)CC(NC(=O)OC(C)(C)C)C(=O)NC(CCC(=O)OCc1ccccc1)C(N)=O (stereo not drawn) (Boc-Leu-Glu(OBn)-NH2; configuration not given here)
  EC50: > 200 µM
  IC50: 191 µM

## COC(=O)N/N=C(\C)C(CN1CCCCC1)C(C1=C(O)c2ccccc2OC1)c1ccccc1 (configuration not stated)
  EC50: > 72.4 µM
  IC50: 42.7 µM

## CC(C)(C)OC[C@H]1N([C@H](COCc2ccccc2)c2ccccc2)C(=O)C1(C)C
  EC50: > 170 µM
  IC50: 117 µM

## CCOc1cc(C2SCC(=O)N2c2ccc(Oc3ccc(Cl)cc3)c(Cl)c2)ccc1O (configuration not stated)
  EC50: > 200 µM
  IC50: 27.5 µM

## O=C(O)c1c(Cl)c(Cl)c(Cl)c(Cl)c1-c1c2ccc(=O)cc-2oc2cc(O)ccc12
  EC50: 6.46 µM
  IC50: 29.5 µM

## CCOC(=O)Nc1ccc2c(c1)/C(=N\NC(N)=S)c1ccccc1-2
  EC50: > 200 µM
  IC50: 3.39 µM

## c1ccc(CSCCC(SCc2ccccc2)SCc2ccccc2)cc1
  EC50: > 200 µM
  IC50: > 200 µM

## Cn1cc(NC(=O)c2cc(NC(=O)CN=C(N)N)cn2C)cc1C(=O)NCCC(=N)N
  EC50: > 200 µM
  IC50: > 200 µM

## CCN(CCN(CC)C(=O)NC)C(=O)NC
  EC50: > 200 µM
  IC50: > 200 µM

## CSC1=N/C(=C\c2ccc(C)cc2)C(=O)N1
  EC50: > 200 µM
  IC50: 178 µM

## CCCCOP(=O)(/C=C/c1ccc([N+](=O)[O-])cc1)OCCCC
  EC50: > 20.9 µM
  IC50: > 20.9 µM

## O=C(OCCOCCOC(=O)c1c[nH]cc1-c1ccccc1)c1c[nH]cc1-c1ccccc1
  outcome: inactive

## Nc1nc2c(c(=O)[nH]1)NC(CO)CN2 (configuration not stated)
  outcome: inactive

## O=C(O)C1CSCN1C(=O)c1ccccc1SSc1ccccc1C(=O)N1CSCC1C(=O)O (configuration not stated)
  EC50: 85.1 µM
  IC50: > 100 µM

## Nc1nc(N)c2ncn(C3C=CC(CO)CC3)c2n1 (configuration not stated)
  EC50: > 200 µM
  IC50: > 200 µM

## Cc1ccc(S(=O)(=O)NC(=O)NC2=NC(C)(C)N(c3ccc(Cl)c(Cl)c3)C(N)=N2)cc1
  EC50: > 200 µM
  IC50: 4.27 µM

## CC(C)(C)NCc1c(C(=O)NCCO)[n+](=O)c2ccccc2n1[O-]
  EC50: > 75.9 µM
  IC50: > 75.9 µM

## Cc1ccc(S(=O)(=O)NC(=O)Nc2sc(=S)c3c(c2C#N)CCCC3)cc1
  EC50: > 309 µM
  IC50: 58.9 µM

## Cc1ccc2c(c1)nc(-c1ccccn1)n2CCc1ccccn1
  EC50: > 347 µM
  IC50: 83.2 µM

## NC(N)=NS(=O)(=O)c1ccc(NNc2c3ccccc3nc3ccccc23)cc1
  EC50: > 200 µM
  IC50: 1.07 µM

## CCN(CC)CCOc1ccc(S(=O)(=O)c2ccc(OCCN(CC)CC)cc2)cc1
  EC50: > 200 µM
  IC50: 39.8 µM

## CN(C)C12C=CC=CC3=C(c4ccccc4)C(c4ccccc4)=C(c4ccccc4)C31c1ccccc1C2 (configuration not stated)
  EC50: > 200 µM
  IC50: > 200 µM

## CCCCN1CCC(O)(c2cc(C(=O)O)[nH]c2-c2cc(C)no2)C1=O (configuration not stated)
  EC50: > 200 µM
  IC50: 70.8 µM

## CC12c3c4ccc(C=O)c3Oc3ccc(C=O)c(c31)Oc1ccc(C=O)c(c12)O4
  EC50: > 25.1 µM
  IC50: 13.5 µM

## CCn1c(C)nn2c(=O)c3ccccc3nc2c1=O
  EC50: > 100 µM
  IC50: > 100 µM

## O=C1C=Cc2ncccc2C1=O
  EC50: > 1580 µM
  IC50: 5.5 µM

## Cc1cccc2c1CC1(C2)Cc2c(C)cccc2C1=O (configuration not stated)
  EC50: > 200 µM
  IC50: 37.2 µM

## C[S+]1Cc2nc3ccccc3n2C1c1c(F)cccc1F (configuration not stated)
  EC50: > 178 µM
  IC50: 79.4 µM

## CCOc1ccc(-n2c(=O)c3nn4c(=O)n(-c5ccc(OCC)cc5)c(=O)c4nn3c2=O)cc1
  EC50: > 200 µM
  IC50: > 200 µM

## CSc1ccc(/C=C/c2ccnc3ccccc23)cc1
  EC50: > 13.5 µM
  IC50: > 13.5 µM

## Cc1cc(-c2ccc(N=Nc3ccc4c(S(=O)(=O)O)cc(S(=O)(=O)O)c(N)c4c3O)c(C)c2)ccc1N=Nc1ccc2c(S(=O)(=O)O)cc(S(=O)(=O)O)c(N)c2c1O
  EC50: > 9.33 µM

## Cc1ccc2c3c(c(=O)oc2c1)[C@H](C)C[C@@](C)(CO)O3
  EC50: > 200 µM
  IC50: 178 µM

## Cc1oc2c(c(=O)c1C)CN(Cc1ccccc1)CC2
  EC50: > 331 µM
  IC50: 275 µM

## N#CC(C#N)=CNC(=S)c1ccncc1
  EC50: > 200 µM
  IC50: 166 µM

## COC(=O)C(C(=O)C(=O)Nc1nc(=S)[nH][nH]1)c1csc(-n2nc(-c3ccccc3)cc2-c2ccccc2)n1 (configuration not stated)
  EC50: > 69.2 µM
  IC50: > 69.2 µM

## NC(N)=NC(P(=O)(O)O)P(=O)(O)O
  EC50: > 200 µM
  IC50: > 200 µM

## CC(C)C(NCc1c(O)ccc2c(-c3ccccc3)cc(=O)oc12)C(=O)O (configuration not stated)
  EC50: > 200 µM
  IC50: > 200 µM

## CCN(CC)C(=O)N1CCN(C=S)CC1
  EC50: > 794 µM
  IC50: > 794 µM

## Nc1n(CC(=O)c2ccccc2)nc2sc(-c3ccccc3)n[n+]12
  EC50: > 200 µM
  IC50: 10.2 µM
